Results: US20180243325A1, “METHOD FOR INHIBITING ABSORPTION OF AND/OR PROMOTING EXCRETION OF LIPIDS USING D-PSICOSE” (CJ CHEILJEDANG CORPORATION, priority 2015, published 2018)

System: ABCG8 (ATP-binding cassette sub-family G member8, 67470)
Experiment: Small intestine mRNA expression, real-time quantitative PCR: ABCG8
Type: in vivo, C57BL/6J mice
Settings: high-fat diet-fed obese mice
Procedure: First, 4-week-old male C57BL/6J mice (60 total) were purchased from Jackson Laboratory. The animals were acclimated to the vivarium in a thermo-hygrostat (20-23° C., 45-65%) under a 12 h light/dark cycle and fed a pelletized commercial non-purified diet for 1 week after arrival. […] Their feed intakes and body weights were measured daily and biweekly, respectively. The organ weights and the adipose tissue weights of the mice were measured after sacrificing the animals.
Samples were prepared and analyzed as previously described. Specifically, total RNA was synthesized into cDNA using a QuantiTect Reverse Transcription kit (QIAGEN Gmb1h, Hilden, Germany). RNA expression was quantified with real-time quantitative PCR using a QuantiTect SYBR Green PCR kit (QIAGEN Gmb1h, Hilden, Germany). […] Fluorescence signals were monitored every cycle and the resulting threshold cycles (Ct) were analyzed. mRNA expression in each experimental group was quantified using a CFX96 Real time system (Bio-rad, USA).

For `O=C(CO)[C@H](O)[C@H](O)[C@H](O)CO` [PSI, D-psicose], the “mRNA expression of ABCG8 (gene involved in lipid excretion)” value was “reduces mRNA expression”.
